From ChEMBL document CHEMBL5465560, “Selectivity Literature for EUbOPEN Chemogenomic Library” (2024)

Key:
[1] = target: AP2-associated protein kinase 1 (Homo sapiens, UniProt Q2M2I8); assay: Selectivity interaction (Kinase panel (DSF assay)) EUB0001489b AAK1
[2] = target: Serine/threonine-protein kinase 32C (Homo sapiens) (UniProt Q86UX6); settings: at 10 µM
[3] = target: Cyclin-dependent kinase 5 (Homo sapiens, UniProt Q00535); assay: Selectivity interaction (KinomeScan (DiscoverX)) EUB0000655a CDK5; settings: at 10 µM
Chain of Cyclin-dependent kinase 5 (Q00535 whole entry, looked up): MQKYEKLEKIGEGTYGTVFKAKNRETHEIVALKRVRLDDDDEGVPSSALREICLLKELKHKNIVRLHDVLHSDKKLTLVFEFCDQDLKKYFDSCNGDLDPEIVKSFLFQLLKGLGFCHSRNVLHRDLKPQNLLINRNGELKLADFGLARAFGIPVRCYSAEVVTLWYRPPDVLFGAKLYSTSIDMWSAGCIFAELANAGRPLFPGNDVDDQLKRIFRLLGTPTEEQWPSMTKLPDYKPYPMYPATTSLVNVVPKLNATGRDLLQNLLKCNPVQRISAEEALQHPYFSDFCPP

[4] = target: Protein-tyrosine kinase 2-beta (Homo sapiens) (UniProt Q14289); assay: Selectivity interaction (KinomeScan (DiscoverX)) EUB0001079a PTK2B; settings: at 1 µM
Chain of Protein-tyrosine kinase 2-beta (Homo sapiens) (Q14289 whole entry, looked up): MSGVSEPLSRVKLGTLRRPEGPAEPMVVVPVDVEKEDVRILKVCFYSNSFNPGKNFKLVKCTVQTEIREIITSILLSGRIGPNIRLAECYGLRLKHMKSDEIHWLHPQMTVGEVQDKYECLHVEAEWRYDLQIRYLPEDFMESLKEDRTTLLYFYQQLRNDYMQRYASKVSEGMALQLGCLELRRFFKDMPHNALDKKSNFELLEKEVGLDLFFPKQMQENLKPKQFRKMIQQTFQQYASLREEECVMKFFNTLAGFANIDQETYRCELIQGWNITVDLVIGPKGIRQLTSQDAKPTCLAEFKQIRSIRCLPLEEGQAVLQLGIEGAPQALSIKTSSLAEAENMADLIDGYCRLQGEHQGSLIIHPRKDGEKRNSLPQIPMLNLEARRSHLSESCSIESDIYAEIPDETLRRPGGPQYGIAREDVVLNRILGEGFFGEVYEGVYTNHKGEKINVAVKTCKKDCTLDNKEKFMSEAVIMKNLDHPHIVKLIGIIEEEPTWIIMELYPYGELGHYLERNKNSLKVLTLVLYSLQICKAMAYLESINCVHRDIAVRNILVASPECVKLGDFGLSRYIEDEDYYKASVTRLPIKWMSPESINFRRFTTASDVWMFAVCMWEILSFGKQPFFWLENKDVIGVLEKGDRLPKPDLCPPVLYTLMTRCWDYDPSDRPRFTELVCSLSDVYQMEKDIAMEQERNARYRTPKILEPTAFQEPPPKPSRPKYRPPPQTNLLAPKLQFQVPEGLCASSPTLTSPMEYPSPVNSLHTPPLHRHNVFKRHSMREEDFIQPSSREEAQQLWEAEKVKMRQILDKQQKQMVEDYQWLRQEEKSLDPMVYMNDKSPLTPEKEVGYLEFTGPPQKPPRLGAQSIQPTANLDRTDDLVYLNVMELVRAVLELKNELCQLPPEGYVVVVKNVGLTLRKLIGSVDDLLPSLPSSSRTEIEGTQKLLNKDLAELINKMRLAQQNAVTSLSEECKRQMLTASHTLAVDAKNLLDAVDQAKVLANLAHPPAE

[5] = target: Death-associated protein kinase 3 (Homo sapiens) (UniProt O43293); assay: Selectivity interaction (KinomeScan (DiscoverX)) EUB0000618a DAPK3; settings: at 10 µM
Chain of Death-associated protein kinase 3 (Homo sapiens) (O43293 whole entry, looked up, canonical isoform): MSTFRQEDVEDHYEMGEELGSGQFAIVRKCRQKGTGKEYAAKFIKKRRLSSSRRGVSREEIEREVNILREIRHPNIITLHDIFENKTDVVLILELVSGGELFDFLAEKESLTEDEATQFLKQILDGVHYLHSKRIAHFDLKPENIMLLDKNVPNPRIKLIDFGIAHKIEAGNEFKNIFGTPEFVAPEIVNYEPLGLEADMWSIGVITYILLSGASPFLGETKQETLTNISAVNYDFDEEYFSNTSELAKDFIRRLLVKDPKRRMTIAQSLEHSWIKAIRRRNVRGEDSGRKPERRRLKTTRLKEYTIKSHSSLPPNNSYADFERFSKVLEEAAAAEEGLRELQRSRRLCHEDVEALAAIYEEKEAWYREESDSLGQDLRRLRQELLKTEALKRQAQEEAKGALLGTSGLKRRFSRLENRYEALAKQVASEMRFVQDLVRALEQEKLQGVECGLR

[6] = tested on: Phosphatidylinositol 4,5-bisphosphate 3-kinase catalytic subunit alpha isoform (Homo sapiens), P42336 [Q546K]; settings: at 10 µM
[7] = tested on: Tyrosine-protein kinase ABL1 (Homo sapiens), P00519 [H396P]; assay: Selectivity interaction (KinomeScan (DiscoverX)) EUB0000607a ABL1; settings: at 10 µM
[8] = target: T1, Muscle, skeletal receptor tyrosine-protein kinase (Homo sapiens) (UniProt O15146); assay: Selectivity interaction (KinomeScan (DiscoverX)) EUB0000045b MUSK
T1 sequence (whole entry): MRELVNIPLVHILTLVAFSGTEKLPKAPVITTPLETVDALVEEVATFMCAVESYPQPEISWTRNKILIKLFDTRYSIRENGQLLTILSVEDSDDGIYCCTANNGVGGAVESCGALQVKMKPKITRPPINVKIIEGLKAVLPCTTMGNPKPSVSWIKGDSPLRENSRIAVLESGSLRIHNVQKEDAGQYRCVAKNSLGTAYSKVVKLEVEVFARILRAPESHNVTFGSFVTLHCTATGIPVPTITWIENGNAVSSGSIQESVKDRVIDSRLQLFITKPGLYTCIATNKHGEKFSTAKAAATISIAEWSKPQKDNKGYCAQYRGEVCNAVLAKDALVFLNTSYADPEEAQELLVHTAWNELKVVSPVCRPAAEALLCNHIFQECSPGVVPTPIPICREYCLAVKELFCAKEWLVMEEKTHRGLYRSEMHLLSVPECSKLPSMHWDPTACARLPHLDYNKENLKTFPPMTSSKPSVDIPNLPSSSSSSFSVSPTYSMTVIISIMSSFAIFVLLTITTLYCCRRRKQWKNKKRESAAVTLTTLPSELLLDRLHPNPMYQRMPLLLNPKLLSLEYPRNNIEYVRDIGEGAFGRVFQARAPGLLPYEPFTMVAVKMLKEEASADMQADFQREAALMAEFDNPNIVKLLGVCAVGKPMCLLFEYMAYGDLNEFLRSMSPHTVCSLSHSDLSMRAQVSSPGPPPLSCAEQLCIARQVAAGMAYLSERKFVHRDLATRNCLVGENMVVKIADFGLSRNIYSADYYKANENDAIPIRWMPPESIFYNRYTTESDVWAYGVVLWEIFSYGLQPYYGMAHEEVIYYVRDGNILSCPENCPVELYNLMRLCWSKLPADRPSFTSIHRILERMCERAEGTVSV

[9] = target: Platelet-derived growth factor receptor alpha (Homo sapiens, UniProt P16234); assay: Selectivity interaction (Upstate Kinase Profiler service (Millipore)) EUB0000056c PDGFRA; settings: at 1 µM
Chain of Platelet-derived growth factor receptor alpha (P16234 whole entry): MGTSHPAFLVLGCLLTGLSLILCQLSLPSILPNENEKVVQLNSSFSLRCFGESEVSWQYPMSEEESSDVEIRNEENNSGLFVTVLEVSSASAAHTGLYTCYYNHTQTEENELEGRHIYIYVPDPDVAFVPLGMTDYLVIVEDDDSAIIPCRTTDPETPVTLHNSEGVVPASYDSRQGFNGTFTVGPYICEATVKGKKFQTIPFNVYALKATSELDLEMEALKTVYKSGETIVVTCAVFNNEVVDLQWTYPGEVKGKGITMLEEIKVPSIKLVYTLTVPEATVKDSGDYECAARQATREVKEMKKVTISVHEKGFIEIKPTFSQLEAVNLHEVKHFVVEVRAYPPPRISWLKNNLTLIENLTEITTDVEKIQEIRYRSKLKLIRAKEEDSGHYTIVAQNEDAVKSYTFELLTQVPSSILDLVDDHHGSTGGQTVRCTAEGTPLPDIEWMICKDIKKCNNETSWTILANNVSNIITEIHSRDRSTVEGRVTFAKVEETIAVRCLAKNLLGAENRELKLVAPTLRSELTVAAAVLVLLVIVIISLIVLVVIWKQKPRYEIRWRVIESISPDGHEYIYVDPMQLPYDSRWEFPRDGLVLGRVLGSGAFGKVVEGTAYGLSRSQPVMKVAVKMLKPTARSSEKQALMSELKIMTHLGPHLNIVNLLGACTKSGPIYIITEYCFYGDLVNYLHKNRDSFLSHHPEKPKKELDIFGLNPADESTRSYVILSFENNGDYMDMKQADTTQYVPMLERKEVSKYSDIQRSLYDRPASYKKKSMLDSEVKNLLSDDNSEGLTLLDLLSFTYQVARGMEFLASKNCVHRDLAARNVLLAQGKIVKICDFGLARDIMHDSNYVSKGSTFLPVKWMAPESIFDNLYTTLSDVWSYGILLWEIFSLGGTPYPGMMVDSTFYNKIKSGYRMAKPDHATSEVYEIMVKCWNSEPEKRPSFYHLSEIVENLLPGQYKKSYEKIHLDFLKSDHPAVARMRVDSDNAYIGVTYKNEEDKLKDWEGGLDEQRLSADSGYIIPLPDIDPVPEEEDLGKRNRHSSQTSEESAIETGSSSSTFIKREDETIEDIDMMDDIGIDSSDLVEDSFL

[10] = target: T2, STE20-related kinase adapter protein alpha (Homo sapiens) (UniProt Q7RTN6); assay: Selectivity interaction (ActivX KiNativ screen (kinase selectivity in THP-1 cell lysates)) EUB0000639a STRADA; format: subcellular; settings: lysate, at 1 µM
T2 sequence (whole entry): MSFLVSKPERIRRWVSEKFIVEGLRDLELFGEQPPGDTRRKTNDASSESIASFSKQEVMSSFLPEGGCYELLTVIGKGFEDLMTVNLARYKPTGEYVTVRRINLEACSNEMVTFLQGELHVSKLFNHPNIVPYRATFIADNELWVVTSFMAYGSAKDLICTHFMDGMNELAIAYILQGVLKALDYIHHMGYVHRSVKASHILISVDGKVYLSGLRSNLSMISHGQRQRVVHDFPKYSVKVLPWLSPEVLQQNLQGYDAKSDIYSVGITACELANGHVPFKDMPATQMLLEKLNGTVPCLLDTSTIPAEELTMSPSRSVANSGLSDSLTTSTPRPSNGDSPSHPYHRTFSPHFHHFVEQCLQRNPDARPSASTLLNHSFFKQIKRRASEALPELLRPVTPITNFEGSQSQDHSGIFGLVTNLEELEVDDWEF

[11] = tested on: Fibroblast growth factor receptor 3 (Homo sapiens), P22607 [G697C]; assay: (§1) Selectivity interaction (KinomeScan (DiscoverX)) EUB0000229b FGFR3; settings: at 1 µM
[12] = target: Fibroblast growth factor receptor 3 (Homo sapiens, UniProt P22607); assay: as §1; settings: at 10 µM
Chain of Fibroblast growth factor receptor 3 (P22607 23-806 limits assumed): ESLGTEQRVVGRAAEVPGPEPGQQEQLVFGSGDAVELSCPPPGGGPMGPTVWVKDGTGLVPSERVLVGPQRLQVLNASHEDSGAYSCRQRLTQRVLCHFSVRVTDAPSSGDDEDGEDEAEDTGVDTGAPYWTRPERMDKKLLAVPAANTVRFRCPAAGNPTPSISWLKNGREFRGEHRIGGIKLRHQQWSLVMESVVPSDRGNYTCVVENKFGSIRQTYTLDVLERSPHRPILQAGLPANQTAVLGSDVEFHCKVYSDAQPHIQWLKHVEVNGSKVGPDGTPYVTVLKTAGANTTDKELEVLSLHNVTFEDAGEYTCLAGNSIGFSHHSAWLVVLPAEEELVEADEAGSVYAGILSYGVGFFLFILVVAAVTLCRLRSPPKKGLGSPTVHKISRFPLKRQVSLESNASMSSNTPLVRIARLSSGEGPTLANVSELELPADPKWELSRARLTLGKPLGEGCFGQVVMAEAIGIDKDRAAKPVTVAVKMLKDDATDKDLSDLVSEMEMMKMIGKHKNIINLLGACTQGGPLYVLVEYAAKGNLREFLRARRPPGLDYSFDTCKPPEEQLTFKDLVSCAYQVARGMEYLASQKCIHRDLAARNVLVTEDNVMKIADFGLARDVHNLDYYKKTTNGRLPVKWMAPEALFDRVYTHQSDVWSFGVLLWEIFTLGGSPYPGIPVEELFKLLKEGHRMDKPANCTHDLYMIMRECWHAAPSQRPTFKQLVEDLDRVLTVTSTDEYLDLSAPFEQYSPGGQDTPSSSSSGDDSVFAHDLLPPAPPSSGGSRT

[13] = tested on: Tyrosine-protein kinase ABL1 (Homo sapiens), P00519 [Q252H]; assay: (§2) Selectivity interaction (KinomeScan (DiscoverX)) EUB0000092b ABL1; settings: at 10 µM
[14] = tested on: Tyrosine-protein kinase ABL1 (Homo sapiens), P00519 [M351T]; assay: as §2; settings: at 10 µM
[15] = tested on: Tyrosine-protein kinase ABL1 (Homo sapiens), P00519 [F317L]; assay: as §2; settings: at 10 µM
[16] = tested on: Tyrosine-protein kinase ABL1 (Homo sapiens), P00519 [H396P]; assay: as §2; settings: at 10 µM
[17] = tested on: Tyrosine-protein kinase ABL1 (Homo sapiens), P00519 [T315I]; assay: as §2; settings: at 10 µM
[18] = target: Tyrosine-protein kinase ABL1 (Homo sapiens, UniProt P00519); assay: as §2; settings: at 10 µM
[19] = target: T3, 3-phosphoinositide-dependent protein kinase 1 (Homo sapiens) (UniProt O15530); assay: Selectivity interaction (KinomeScan (DiscoverX)) EUB0000695a PDPK1; settings: at 100 nM
T3 sequence (whole entry): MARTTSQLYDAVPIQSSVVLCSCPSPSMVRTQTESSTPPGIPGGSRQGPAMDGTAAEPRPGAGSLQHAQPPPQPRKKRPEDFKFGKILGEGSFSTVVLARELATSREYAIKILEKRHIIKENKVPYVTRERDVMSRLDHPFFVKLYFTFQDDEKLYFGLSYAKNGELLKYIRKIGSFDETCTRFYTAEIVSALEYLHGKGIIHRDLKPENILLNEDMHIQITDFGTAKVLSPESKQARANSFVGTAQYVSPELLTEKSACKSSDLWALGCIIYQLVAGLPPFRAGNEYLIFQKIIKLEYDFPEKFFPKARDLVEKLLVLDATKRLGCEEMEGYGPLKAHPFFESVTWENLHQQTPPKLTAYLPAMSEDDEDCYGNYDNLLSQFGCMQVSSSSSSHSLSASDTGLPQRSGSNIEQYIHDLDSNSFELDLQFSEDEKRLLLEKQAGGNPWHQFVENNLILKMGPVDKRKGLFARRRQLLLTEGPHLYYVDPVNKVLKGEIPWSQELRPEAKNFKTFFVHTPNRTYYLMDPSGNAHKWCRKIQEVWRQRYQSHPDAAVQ

[20] = target: Vascular endothelial growth factor receptor 2 (Homo sapiens, UniProt P35968); assay: Selectivity interaction (KinomeScan (DiscoverX)) EUB0000695a KDR; settings: at 100 nM

Chain of Serine/threonine-protein kinase 32C (Homo sapiens) (Q86UX6 whole entry): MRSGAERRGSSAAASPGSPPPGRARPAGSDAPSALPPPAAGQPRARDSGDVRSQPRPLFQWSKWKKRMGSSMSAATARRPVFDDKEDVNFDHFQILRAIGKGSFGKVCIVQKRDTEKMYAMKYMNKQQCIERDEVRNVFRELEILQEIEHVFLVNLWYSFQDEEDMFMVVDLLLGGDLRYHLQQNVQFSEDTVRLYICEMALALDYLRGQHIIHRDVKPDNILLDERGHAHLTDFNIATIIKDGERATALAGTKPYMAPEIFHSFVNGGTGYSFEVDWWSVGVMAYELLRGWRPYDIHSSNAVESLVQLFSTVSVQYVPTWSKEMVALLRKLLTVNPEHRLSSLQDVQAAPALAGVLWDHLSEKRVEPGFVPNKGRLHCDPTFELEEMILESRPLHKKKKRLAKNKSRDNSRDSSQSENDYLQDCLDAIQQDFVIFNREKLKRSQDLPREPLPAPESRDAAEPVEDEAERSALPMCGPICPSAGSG
Chain of AP2-associated protein kinase 1 (Q2M2I8 whole entry, looked up): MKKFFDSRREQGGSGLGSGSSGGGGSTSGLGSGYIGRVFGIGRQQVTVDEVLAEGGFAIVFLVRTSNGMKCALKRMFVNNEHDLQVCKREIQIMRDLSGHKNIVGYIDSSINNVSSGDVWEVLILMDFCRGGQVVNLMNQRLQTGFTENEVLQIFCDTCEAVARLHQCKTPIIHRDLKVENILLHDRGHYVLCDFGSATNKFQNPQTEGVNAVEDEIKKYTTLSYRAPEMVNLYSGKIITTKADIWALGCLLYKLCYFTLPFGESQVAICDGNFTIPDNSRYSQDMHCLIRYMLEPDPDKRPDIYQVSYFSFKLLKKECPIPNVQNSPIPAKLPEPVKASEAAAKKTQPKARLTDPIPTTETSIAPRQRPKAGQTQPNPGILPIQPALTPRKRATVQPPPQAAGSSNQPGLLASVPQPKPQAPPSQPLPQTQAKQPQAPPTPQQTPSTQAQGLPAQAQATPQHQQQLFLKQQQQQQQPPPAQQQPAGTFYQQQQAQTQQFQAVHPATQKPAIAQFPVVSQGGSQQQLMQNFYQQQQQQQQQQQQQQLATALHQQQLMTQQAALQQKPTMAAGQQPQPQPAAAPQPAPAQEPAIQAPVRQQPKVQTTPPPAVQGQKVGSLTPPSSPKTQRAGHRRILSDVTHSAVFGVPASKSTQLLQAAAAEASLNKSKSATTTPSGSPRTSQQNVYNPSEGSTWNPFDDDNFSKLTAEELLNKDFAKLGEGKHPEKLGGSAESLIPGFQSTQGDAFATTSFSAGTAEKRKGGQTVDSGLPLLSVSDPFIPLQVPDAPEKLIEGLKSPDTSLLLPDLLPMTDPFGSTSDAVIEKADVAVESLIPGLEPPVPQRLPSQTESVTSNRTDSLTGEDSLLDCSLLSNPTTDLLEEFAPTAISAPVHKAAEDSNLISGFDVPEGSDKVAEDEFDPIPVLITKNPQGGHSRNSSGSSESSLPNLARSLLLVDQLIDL

SMILES: CN1CCN(C(=O)c2ccc3cc2OCCOCCNc2ccn4ncc-3c4n2)CC1
- dTM [1]: 4.2 K

SMILES: CCN(CC)CCCCNc1ncc2cc(-c3cc(OC)cc(OC)c3)c(NC(=O)NC(C)(C)C)nc2n1
- % of control [2]: 100%

SMILES: CN(C)CCOc1ccc(-c2nc(-c3ccncc3)c(-c3ccc4c(c3)CC/C4=N\O)[nH]2)cc1
- % of control [3]: 100%

SMILES: Nc1cnc(N2CCc3cc(S(=O)(=O)Nc4c(F)cc(Cl)cc4F)cc(N4CCCC4=O)c32)nc1 [TP-020n]
- % of control [4]: 100%

SMILES: O[C@H]1CC[C@H](Nc2ncc3nc(Nc4c(F)cc(F)cc4F)n([C@H]4CCOC4)c3n2)CC1
- % of control [5]: 100%

SMILES: CNC(=O)Nc1ccc(-c2nc(N3CC4CCC(C3)O4)c3cnn(C4CCC5(CC4)OCCO5)c3n2)cc1
- % of control [6]: 11%
- % of control [7]: 100%

SMILES: C=CC(=O)Nc1cc(-n2c(=O)ccc3cnc4ccc(-c5ccc(NS(C)(=O)=O)cc5)cc4c32)ccc1C
- % of control ([8]; at 1 µM): 100%
- % of control ([8]; at 10 µM): 82%

SMILES: Cc1ccc(-c2ccc3c(ccc4sc5c(c43)NC[C@@H](C)NC5=O)n2)cn1
- % of inhibition [9]: -24%

SMILES: CC[C@@H]1[C@H](F)C(=O)N[C@@H]1COc1nccc2cc(C(N)=O)c(OC)cc12 [ZIMLOVISERTIB]
- % of inhibition [10]: -7.6%

SMILES: COc1cc(N(C)c2ccnc3ccc(C(F)(F)F)cc23)cc(OC)c1OC
- % binding [11]: 90%
- % binding [12]: 100%

SMILES: CCC(=O)N1CCN(c2ccc(-n3c(=O)ccc4cnc5ccc(-c6cnc7ccccc7c6)cc5c43)cc2C(F)(F)F)CC1
- % of control [13]: 89%
- % of control [14]: 100%
- % of control [15]: 100%
- % of control [16]: 68%
- % of control [17]: 100%
- % of control [18]: 60%

SMILES: Cc1cc(F)c(C(=O)Nc2cccc(-c3nncn3C(C)C)n2)cc1-n1cnc(C2CC2)c1
- % of control [19]: 82%
- % of control [20]: 100%
